{"source": "paper PMC3098219", "about": "“Protective Efficacy of Serially Up-Ranked Subdominant CD8^+ T Cell Epitopes against Virus Challenges” (PLoS Pathogens, 2011)", "key": {"[1]": {"tested_on": "CD8^+ splenocytes of immunized mice", "format": "cell-based, BALB/c mice", "conditions": "HIVAdH vs HIVA immunization; ex vivo ICS, Figure 1D"}, "[2]": {"tested_on": "H-2D^d, H-2K^d or H-2L^d complexes", "test": "T2 peptide binding assay, respective MHC class I complexes", "conditions": "Figure 3A; TAP-deficient T2 cells, 100 µM to 0.1 µM peptide, 14 h at 37°C, FACS", "procedure": "Figure 3 Contributing mechanisms of immunodominance. […] T2 cell lines were incubated with decreasing peptide concentrations ranging from 100 µM to 0.1 µM indicated above the H peptide histogram and the cell surface peptide-loaded MHC complexes were detected by fluorochrome-conjugated mAb (DB Biosciences) and quantified using FACS flow cytometer. B) and C) Groups of 3 BALB/c mice were given 3x immunizations using 100 µg of DNA expressing the index or mutated forms of HIVA at 3 wk intervals and their T cell responses were analyzed 4 wk later. B) Splenocytes were assessed in an ICS assay using peptides indicated above the graphs at concentrations ranging from 10 to 10^−8 µM for 5 h. Cells were gated on IFN-γ-producing CD8^+ T cell populations positive (top) or negative (bottom) for CD107a/b. Note the different y-axis scales on the top and bottom graphs. C) The response kinetics of CD8^+ T cells re-stimulated with 0.1 µM peptides was assessed in an ICS assay in 1-h intervals for a period of 4 h. Data shown are as mean±SD of [CD8^+CD107a/b^+IFN-γ^+ cells at each time point (%)] ÷ [CD8^+CD107a/b^+IFN-γ^+ at 4 h (%)]. One out of two independent experiments is shown.\nTAP2 ([…])-deficient T2 cell lines stably expressing D^d, K^d, and L^d molecules kindly provided by Dr. Ted Hansen (Washington university, U.S.A.) were used to assess the ability of MHCs to bind each peptide. In brief, 1×10^5 cells were incubated with 0/0.1/1.0/10/100 µM peptides in no-serum RPMI (R-0) for 14 h at 37°C, 5% CO2 in a flat-bottomed 96-well plate. 14 h later, cells were transferred to a round-bottomed 96-well plate and washed with PBS before staining the cells with anti-H-2K^d/H-2D^d-PE or anti-H-2L^d-PE (eBioscience) monoclonal antibodies. Cells were then analyzed on a FACS flow cytometer."}, "CD8^+CD107a/b^+ T cells": {"tested_on": "CD8^+CD107a/b^+ T cells", "test": "Multicolour flow cytometry after mixed or split vaccination", "format": "cell-based, BALB/c mice"}, "H-2K^d": {"target": "H-2K^d (Mus musculus, UniProt P01902)", "sequence (P01902 whole entry, looked up)": "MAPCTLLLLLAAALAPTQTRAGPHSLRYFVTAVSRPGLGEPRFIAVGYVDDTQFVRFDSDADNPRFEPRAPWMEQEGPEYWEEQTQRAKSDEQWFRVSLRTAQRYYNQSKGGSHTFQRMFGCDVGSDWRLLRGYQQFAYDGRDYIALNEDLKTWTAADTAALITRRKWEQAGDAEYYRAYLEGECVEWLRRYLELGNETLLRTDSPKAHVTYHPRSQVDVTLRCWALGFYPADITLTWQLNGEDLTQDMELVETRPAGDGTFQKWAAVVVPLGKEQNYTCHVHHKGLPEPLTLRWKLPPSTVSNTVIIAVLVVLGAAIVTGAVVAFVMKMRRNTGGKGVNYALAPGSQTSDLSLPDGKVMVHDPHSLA", "conditions": "ref [34]; cited from earlier work", "from_the_text": "Our research interests lie in development of the T cell component of HIV-1 vaccines stimulating protective CD8^+ T cell responses. The first-generation T cell immunogen, designated HIVA (Figure 1A), has served as an extremely useful tool for iterative improving of CD8^+ T cell induction by experimental vaccines in mice, non-human primates and humans [reviewed in [30]]. To increase the power of T cell analysis and study the role of subdominant determinants, H-2^d class I-restricted epitopes contained in the HIVA immunogen were mapped in detail. Thus, the most immunodominant epitope of ..."}, "CD8^+ T cells": {"tested_on": "CD8^+ T cells", "test": "ICS of HIVB-induced responses pre- and post-EcoHIV challenge", "conditions": "Figure 7B, pTH.HIVB DNA twice"}}, "data": [{"sequence": "AMQMLKDTI [G1]", "values": [{"measurement": "frequencies of IFN-γ-producing CD8^+ cells", "setting": "[1]", "value": "noticeably, though not significantly increased"}, {"measurement": "peptide binding affinities for respective MHC class I", "setting": "[2]", "value": "directly correlated with the immunodominance hierarchy"}, {"measurement": "G1-specific response relative to epitopes H and P", "setting": "CD8^+CD107a/b^+ T cells; Figure 4B groups 4 and 5, HIVA-dHmP and dHmP-HIVA prime-boost, 23-wk rest, WR.HIVA re-stimulation", "value": "significantly increased"}, {"measurement": "anti-G1 responses", "setting": "CD8^+CD107a/b^+ T cells; Figure 4B groups 7 and 9, pre-mixed vaccines injected into 2 sites", "value": "failed to induce anti-G1 responses"}, {"measurement": "MHC class I restriction (H-2K^d)", "setting": "H-2K^d", "value": "H-2K^d-restricted"}, {"measurement": "CD8^+ T cell response after HIVB vaccination", "setting": "CD8^+ T cells", "value": "the only detectable CD8^+ T cell response"}]}]}
